Here are results for 25 compounds from patent US8202856B2 (Merck Serono SA, priority 2007, dated 2012).

One assay has as its target S1P3 receptor (Homo sapiens, UniProt Q99500). As to the kind of experiment: 35S-GTPγS binding, membranes from CHO cells expressing S1P3. The class given is biochemical. To be noted: CHO cell membranes expressing S1P3. On the procedure:
Receptor binding assay: Membranes were prepared from CHO cells expressing S1P1 or S1P3 for use in ligand and 35S-GTPTS binding studies. Cells were suspended in 50 mM TRIS, pH 7.4, 2 mM EDTA, 250 mM Sucrose (buffer A) and 1× Complete protease inhibitor cocktail (Roche), and disrupted at 4° C. by nitrogen decompression using a cell disruption bomb (Parr Instrument). Following centrifugation at 1000 RPM for 10 min at 4° C., the supernatant was suspended in buffer A and centrifuged again at 19000 RPM for 60 min at 4° C. The pellet was then suspended in 10 mM HEPES, pH 7.4, 1 mM EDTA, 250 mM Sucrose (Buffer B), and 1× Complete EDTA-free protease inhibitor cocktail and homogenized using a potter. Membranes were flash frozen in liquid nitrogen and stored at −80° C. [33P]sphingosine 1-phosphate (3000 Ci/mmol; American Radiolabeled Chemicals, Inc.) was added to test compounds in DMSO. Membranes and WGA SPA beads (GE Healthcare) were added to give a final volume of 100 μl in 96-well plates with assay concentrations of […] [33P]sphingosine 1-phosphate (respectively for S1P1 or S1P3), 50 mM HEPES, pH 7.5, 5 mM MgCl2, 100 mM NaCl, 0.4% fatty acid-free BSA, 1-5 μg/well of proteins and 100 μg/well of WGA SPA beads. Binding was performed for 60 min at room temperature on a shaker and bound radioactivity was measured on a PerkinElmer 1450 MicroBeta counter. Specific binding was calculated by subtracting remaining radioactivity in the presence of 1000-fold excess of unlabeled S1P. Binding data were analyzed using the GraphPad Prism program.
Measurements of ^35S-GTPγS Binding: Membranes (1 to 10 μg protein) prepared as described above, were incubated in 96-well Scintiplates (PerkinElmer) with test compounds diluted in DMSO, in 180 μl of 20 mM HEPES, pH 7.4, 10 mM MgCl2, 2 μg/well Saponin, 0.2% fatty acid free BSA (Assay buffer), 140 mM NaCl and 1.7 μM GDP. The assay was initiated with the addition of 20 μl of 1.5 nM [35S]-GTPγS (1100 Ci/mmol; GE Healthcare) in assay buffer. After 60 min incubation at 30° C. on a shaker, plates were centrifuged for 10 min at 2000 RPM. Supernatant was discarded and membrane bound radioactivity was measured on a PerkinElmer 1450 MicroBeta counter. Triplicate samples were averaged and expressed as response relative to S1P activation in absence of compound (n=2).
In general terms: GTPγS is a poorly hydrolysed GTP analogue; its binding reports G protein activation.

In the next assay the target is S1P1 receptor (Homo sapiens, UniProt P21453). The experiment in a line: 35S-GTPγS binding, membranes from CHO cells expressing S1P1. The assay is classed as biochemical. To be noted: CHO cell membranes expressing S1P1. In short, it runs like this:
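Membranes (1–10 μg) from CHO cells expressing the receptor were incubated with compound in 20 mM HEPES pH 7.4, 10 mM MgCl2, 140 mM NaCl, 1.7 μM GDP, saponin and 0.2% BSA. [35S]GTPγS (added at 1.5 nM) was then bound for 60 min at 30 °C. Membrane-bound radioactivity, averaged over triplicates, is expressed relative to S1P activation (n=2).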

SMILES strings stand for the structures. Where a name gives a salt, the structure may show the parent alone. A value given as a limit tells only on which side of the number the result lay.

For orientation: EC50 means the concentration that produces a half-maximal response. Read a low EC50 as higher potency in that assay.

Chain of S1P3 receptor (Q99500 whole entry): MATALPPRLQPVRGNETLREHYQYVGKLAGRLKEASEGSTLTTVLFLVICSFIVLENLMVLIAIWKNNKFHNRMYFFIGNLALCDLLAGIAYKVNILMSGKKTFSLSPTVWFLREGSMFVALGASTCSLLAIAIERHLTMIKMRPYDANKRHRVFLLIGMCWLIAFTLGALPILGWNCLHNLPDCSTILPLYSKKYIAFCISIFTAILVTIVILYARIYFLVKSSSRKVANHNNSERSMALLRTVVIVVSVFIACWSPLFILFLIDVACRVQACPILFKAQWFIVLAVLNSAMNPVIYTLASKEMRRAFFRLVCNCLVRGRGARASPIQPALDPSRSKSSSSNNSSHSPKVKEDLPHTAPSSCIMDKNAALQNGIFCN
Chain of S1P1 receptor (P21453 whole entry): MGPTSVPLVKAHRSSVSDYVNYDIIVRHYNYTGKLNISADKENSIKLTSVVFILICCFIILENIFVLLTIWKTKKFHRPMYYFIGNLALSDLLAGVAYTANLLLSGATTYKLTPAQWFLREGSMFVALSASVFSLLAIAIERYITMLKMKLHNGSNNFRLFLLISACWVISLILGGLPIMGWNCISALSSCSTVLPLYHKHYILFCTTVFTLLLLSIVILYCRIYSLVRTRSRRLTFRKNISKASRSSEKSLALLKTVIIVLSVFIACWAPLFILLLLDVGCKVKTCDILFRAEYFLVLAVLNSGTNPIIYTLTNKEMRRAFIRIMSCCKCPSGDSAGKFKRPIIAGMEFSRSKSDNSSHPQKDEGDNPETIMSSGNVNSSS

As to `COc1ccc(-c2noc(-c3nnn(-c4ccccc4F)c3-c3ccncc3)n2)cc1` [Example 48, 4-{1-(2-fluorophenyl)-4-[3-(4-methoxyphenyl)-1,2,4-oxadiazol-5-yl]-1H-1,2,3-triazol-5-yl}pyridine], the EC50 on S1P3 receptor came to 10400 nM; on S1P1 receptor, 127 nM.
For `Fc1ccc(F)c(-c2noc(-c3nnn(-c4ccccc4F)c3-c3cccnc3)n2)c1` [Example 26, 3-[4-[3-(2,5-Difluorophenyl)-1,2,4-oxadiazole-5-yl]-1-(2-fluorophenyl)-1H-1,2,3-triazole-5-yl]pyridine] the same measures were over 20000 nM and 95 nM.
Regarding `COCc1c(-c2nc(-c3cc(F)ccc3F)no2)nnn1-c1ccccc1F` [Example 10, 3-(2,5-Difluorophenyl)-5-[1-(2-fluorophenyl)-5-(methoxymethyl)-1H-1,2,3-triazole-4-yl]-1,2,4-oxadiazole], the figures for the EC50 on S1P3 receptor and at S1P1 receptor were over 30000 nM and 45 nM, respectively.
Regarding `Fc1cc(F)cc(-c2noc(-c3nnn(-c4ccccc4F)c3-c3ccncc3)n2)c1` [Example 102, 4-[4-[3-(3,5-difluorophenyl)-1,2,4-oxadiazol-5-yl]-1-(2-fluorophenyl)-1H-1,2,3-triazol-5-yl]pyridine], the EC50 is 149 nM at S1P3 receptor and 6 nM on S1P1 receptor.
For `COCc1c(-c2nc(-c3ccccc3F)no2)nnn1-c1ccccc1F` the same measures were over 30000 nM and 211 nM.
In the same order, the values of `NCc1ccc(-c2noc(-c3nnn(-c4ccccc4F)c3-c3ccncc3)n2)cc1` [Example 80, 1-(4-{5-[1-(2-fluorophenyl)-5-pyridin-4-yl-1H-1,2,3-triazol-4-yl]-1,2,4-oxadiazol-3-yl}phenyl)methanamine hydrochloride] are 2270 nM and 38 nM.
Regarding `Fc1ccc(F)c(-c2noc(-c3nnn(-c4ccccc4F)c3-c3ccccn3)n2)c1` [Example 28, 2-[4-[3-(2,5-Difluorophenyl)-1,2,4-oxadiazole-5-yl]-1-(2-fluorophenyl)-1H-1,2,3-triazole-5-yl]pyridine], the concentration for a half-maximal effect (EC50) at S1P3 receptor is 7250 nM; at S1P1 receptor, 44 nM.
For `COCc1c(-c2nc(-c3ccc4[nH]ncc4c3)no2)nnn1-c1ccccc1F` [Example 87, 5-{5-[1-(2-fluorophenyl)-5-(methoxymethyl)-1H-1,2,3-triazol-4-yl]-1,2,4-oxadiazol-3-yl}-1H-indazole] the same measures were over 20000 nM and 98 nM.
Regarding `Fc1ccccc1-n1nnc(-c2nc(-c3ccncc3)no2)c1-c1ccncc1` [Example 41, 4-[1-(2-fluorophenyl)-4-(3-pyridin-4-yl-1,2,4-oxadiazol-5-yl)-1H-1,2,3-triazol-5-yl]pyridine], the concentration giving a half-maximal response (EC50) was over 20000 nM at S1P3 receptor and 160 nM on S1P1 receptor.
In the same order, the values of `O=C(O)C1CCN(Cc2ccc(-c3noc(-c4nnn(-c5ccccc5F)c4-c4ccncc4)n3)cc2)CC1` [Example 128, 1-(4-{5-[1-(2-fluorophenyl)-5-pyridin-4-yl-1H-1,2,3-triazol-4-yl]-1,2,4-oxadiazol-3-yl}benzyl)piperidine-4-carboxylic acid] are 2530 nM and 8 nM.
Turning to `COc1ccccc1-c1noc(-c2nnn(-c3ccccc3F)c2-c2ccccc2)n1` [Example 22, 5-[1-(2-Fluorophenyl)-5-phenyl-1H-1,2,3-triazole-4-yl]-3-(2-methoxyphenyl)-1,2,4-oxadiazole], the 50% effective concentration (EC50) on S1P3 receptor came out at 6860 nM; on S1P1 receptor it was 140 nM.
In the same order, the values of `COCc1c(-c2nc(-c3ccc(F)cc3F)no2)nnn1-c1ccccc1F` [Example 8, 3-(2,4-Difluorophenyl)-5-[1-(2-fluorophenyl)-5-(methoxymethyl)-1H-1,2,3-triazole-4-yl]-1,2,4-oxadiazole] are over 10000 nM and 744 nM.
In the same order, the values of `Fc1ccccc1-c1noc(-c2nnn(-c3ccccc3F)c2-c2cccnc2)n1` [Example 25, 3-{1-(2-Fluorophenyl)-4-[3-(2-fluorophenyl)-1,2,4-oxadiazole-5-yl]-1H-1,2,3-triazole-5-yl}pyridine] are over 20000 nM and 272 nM.
For `COC(=O)c1cccc(-c2noc(-c3nnn(-c4ccccc4F)c3-c3ccccc3)n2)c1` [Example 20, Methyl 3-{5-[1-(2-fluorophenyl)-5-phenyl-1H-1,2,3-triazole-4-yl]-1,2,4-oxadiazole-3-yl}benzoate] the same measures were 8550 nM and 84 nM.
For `Cc1cccc(-c2noc(-c3nnn(-c4ccccc4F)c3-c3ccncc3)n2)c1` [Example 104, 4-{1-(2-fluorophenyl)-4-[3-(3-methylphenyl)-1,2,4-oxadiazol-5-yl]-1H-1,2,3-triazol-5-yl}pyridine], the concentration giving a half-maximal response (EC50) on S1P3 receptor worked out at 660 nM; on S1P1 receptor, 14 nM.
In the same order, the values of `COCc1c(-c2nc(-c3cccnc3)no2)nnn1-c1ccccc1F` [Example 47, 3-{5-[1-(2-fluorophenyl)-5-(methoxymethyl)-1H-1,2,3-triazol-4-yl]-1,2,4-oxadiazol-3-yl}pyridine] are over 20000 nM and 672 nM.
For `Cc1c(-c2nc(-c3ccccc3)no2)nnn1-c1ccccc1F` [Example 34, 5-[1-(2-fluorophenyl)-5-methyl-1H-1,2,3-triazol-4-yl]-3-phenyl-1,2,4-oxadiazole] the same measures were over 30000 nM and 1100 nM.
In the same order, the values of `CCc1c(-c2nc(-c3ccccc3)no2)nnn1-c1ccccc1F` [Example 5, 5-[5-Ethyl-1-(2-fluorophenyl)-1H-1,2,3-triazole-4-yl]-3-phenyl-1,2,4-oxadiazole] are over 30000 nM and 862 nM.
For `COCc1c(-c2nc(-c3cccc(S(C)(=O)=O)c3)no2)nnn1-c1ccccc1F` [Example 68, 5-[1-(2-fluorophenyl)-5-(methoxymethyl)-1H-1,2,3-triazol-4-yl]-3-[3-(methylsulfonyl)phenyl]-1,2,4-oxadiazole], the half-maximal effective concentration (EC50) was over 20000 nM on S1P3 receptor and 594 nM on S1P1 receptor.
For `Fc1cccc(-c2noc(-c3nnn(-c4ccccc4F)c3-c3ccncc3)n2)c1` [Example 83, 4-{1-(2-fluorophenyl)-4-[3-(3-fluorophenyl)-1,2,4-oxadiazol-5-yl]-1H-1,2,3-triazol-5-yl}pyridine] the same measures were 242 nM and 17 nM.
In the same order, the values of `Fc1ccc(F)c(-c2noc(-c3nnn(-c4ccccc4F)c3C3CCCC3)n2)c1` [Example 77, 5-[5-cyclopentyl-1-(2-fluorophenyl)-1H-1,2,3-triazol-4-yl]-3-(2,5-difluorophenyl)-1,2,4-oxadiazole] are 33 nM and 206 nM.
In the same order, the values of `Fc1ccc(F)c(-c2noc(-c3nnn(-c4ccccc4F)c3C3CC3)n2)c1` [Example 69, 5-[5-cyclopropyl-1-(2-fluorophenyl)-1H-1,2,3-triazol-4-yl]-3-(2,5-difluorophenyl)-1,2,4-oxadiazole] are over 20000 nM and 116 nM.
In the case of `COCCc1c(-c2nc(-c3ccccc3F)no2)nnn1-c1ccccc1F` [Example 49, 3-(2-fluorophenyl)-5-[1-(2-fluorophenyl)-5-(2-methoxyethyl)-1H-1,2,3-triazol-4-yl]-1,2,4-oxadiazole], the EC50 on S1P3 receptor stood at 13300 nM; on S1P1 receptor it was 119 nM.
For `Fc1ccccc1-c1noc(-c2nnn(-c3ccccc3F)c2-c2ccncc2)n1` [Example 32, 4-{1-(2-Fluorophenyl)-4-[3-(2-fluorophenyl)-1,2,4-oxadiazole-5-yl]-1H-1,2,3-triazole-5-yl}pyridine] the same measures were 1200 nM and 20 nM.
For `Fc1ccc(F)c(-c2noc(-c3nnn(-c4ccccc4F)c3-c3ccccc3)n2)c1` [Example 12, 3-(2,5-Difluorophenyl)-5-[1-(2-fluorophenyl)-5-phenyl-1H-1,2,3-triazole-4-yl]-1,2,4-oxadiazole] the same measures were 14000 nM and 7 nM.
